≈ marks a conversion by molar mass, not a printed value.
Columns and labels:
Enterococcus faecalis = test: Antibacterial activity against vancomycin-resistant Enterococcus faecalis 1528 R10 assessed as zone of inhibition at 50 ug/disc after 24 hrs by agar diffusion assay; type: functional; conditions: 1528 R10, 24 h, read-out: IZ
Mycolicibacterium vaccae = test: Antibacterial activity against Mycobacterium vaccae 10670 M4 assessed as zone of inhibition at 50 ug/disc after 24 hrs by agar diffusion assay; type: functional; conditions: 10670 M4, 24 h, read-out: IZ
Penicillium chrysogenum = test: Antifungal activity against Penicillium notatum JP36 P1 assessed as zone of inhibition at 50 ug/disc after 24 hrs by agar diffusion assay; type: functional; conditions: JP36 P1, 24 h, read-out: IZ
Bacillus subtilis = test: Antibacterial activity against Bacillus subtilis 6633 B1 assessed as zone of inhibition at 50 ug/disc after 24 hrs by agar diffusion assay; type: functional; conditions: 6633 B1, 24 h, read-out: IZ
Escherichia coli = test: Antibacterial activity against Escherichia coli 458 B4 assessed as zone of inhibition at 50 ug/disc after 24 hrs by agar diffusion assay; type: functional; conditions: 458 B4, 24 h, read-out: IZ
[1] = test system: Sporobolomyces salmonicolor; test: Antifungal activity against Sporidiobolus salmonicolor 549 H4 assessed as zone of inhibition at 50 ug/disc after 24 hrs by agar diffusion assay; type: functional; conditions: 549 H4, 24 h, read-out: IZ
Aspergillus terreus = test: Antifungal activity against amphotericin-resistant Aspergillus terreus DSM 826 assessed as zone of inhibition at 50 ug/disc after 24 hrs by agar diffusion assay; type: functional; conditions: DSM 826, 24 h, read-out: IZ
Pseudomonas aeruginosa [2] = test: Antibacterial activity against Pseudomonas aeruginosa SG 137 B7 assessed as zone of inhibition at 50 ug/disc after 24 hrs by agar diffusion assay; type: functional; conditions: SG 137 B7, 24 h, read-out: IZ
Candida albicans = test: Antifungal activity against Candida albicans H8 assessed as zone of inhibition at 50 ug/disc after 24 hrs by agar diffusion assay; type: functional; conditions: H8, 24 h, read-out: IZ
Staphylococcus aureus [3] = test: Antibacterial activity against Staphylococcus aureus 511 B3 assessed as zone of inhibition at 50 ug/disc after 24 hrs by agar diffusion assay; type: functional; conditions: 511 B3, 24 h, read-out: IZ
Staphylococcus aureus [4] = test: Antibacterial activity against methicillin-resistant Staphylococcus aureus 134/93 R9 assessed as zone of inhibition at 50 ug/disc after 24 hrs by agar diffusion assay; type: functional; conditions: 134/93 R9, 24 h, read-out: IZ
Aspergillus fumigatus = test: Antifungal activity against Aspergillus fumigatus ATCC 46645 assessed as zone of inhibition at 50 ug/disc after 24 hrs by agar diffusion assay; type: functional; conditions: ATCC 46645, 24 h, read-out: IZ
K562 = test: Antiproliferative activity against human K562 cells; type: functional
HUVEC = test: Antiproliferative activity against HUVEC; type: functional; conditions: Homo sapiens
HeLa = test: Cytotoxicity against human HeLa cells; type: functional
Pseudomonas aeruginosa [5] = test: Antibacterial activity against Pseudomonas aeruginosa K 799/61 B9 assessed as zone of inhibition at 50 ug/disc after 24 hrs by agar diffusion assay; type: functional; conditions: K 799/61 B9, 24 h, read-out: IZ
Aspergillus niger = test: Antifungal activity against Aspergillus niger DSM 737 assessed as zone of inhibition at 50 ug/disc after 24 hrs by agar diffusion assay; type: functional; conditions: DSM 737, 24 h, read-out: IZ
[6] = Cytotoxicity against human PXF 1752L cells by propidium iodide-based fluorescence assay; type: functional, cell-based
[7] = Cytotoxicity against human PAXF 1657L cells by propidium iodide-based fluorescence assay; type: functional, cell-based
[8] = Cytotoxicity against human UXF 1138L cells by propidium iodide-based fluorescence assay; type: functional, cell-based
[9] = Cytotoxicity against human CXF HT29 cells by propidium iodide-based fluorescence assay; type: functional, cell-based; conditions: HT-29
[10] = Cytotoxicity against human LXFL 529L cells by propidium iodide-based fluorescence assay; type: functional, cell-based
[11] = Cytotoxicity against human MAXF 401NL cells by propidium iodide-based fluorescence assay; type: functional, cell-based
[12] = Cytotoxicity against human PRXF 22Rv1 cells by propidium iodide-based fluorescence assay; type: functional, cell-based, CWR22R
[13] = Cytotoxicity against human OVXF 899L cells by propidium iodide-based fluorescence assay; type: functional, cell-based
[14] = Cytotoxicity against human LXFA 629L cells by propidium iodide-based fluorescence assay; type: functional, cell-based
[15] = Cytotoxicity against human MEXF 462NL cells by propidium iodide-based fluorescence assay; type: functional, cell-based
[16] = Cytotoxicity against human GXF251L cells by propidium iodide-based fluorescence assay; type: functional, cell-based; conditions: GXF 251L
[17] = Cytotoxicity against human RXF 486L cells by propidium iodide-based fluorescence assay; type: functional, cell-based

SMILES	zone of inhibition at 50 µg/disc (Enterococcus faecalis) [mm]	zone of inhibition at 50 µg/disc (Mycolicibacterium vaccae) [mm]	zone of inhibition at 50 µg/disc (Penicillium chrysogenum) [mm]	zone of inhibition at 50 µg/disc (Bacillus subtilis) [mm]	zone of inhibition at 50 µg/disc (Escherichia coli) [mm]	zone of inhibition at 50 µg/disc [1] [mm]	zone of inhibition at 50 µg/disc (Aspergillus terreus) [mm]	zone of inhibition at 50 µg/disc (Pseudomonas aeruginosa [2]) [mm]	zone of inhibition at 50 µg/disc (Candida albicans) [mm]	zone of inhibition at 50 µg/disc (Staphylococcus aureus [3]) [mm]	zone of inhibition at 50 µg/disc (Staphylococcus aureus [4]) [mm]	zone of inhibition at 50 µg/disc (Aspergillus fumigatus) [mm]	GI50 (K562) [µg/mL]	GI50 (HUVEC) [µg/mL]	CC50 (HeLa) [µg/mL]	zone of inhibition at 50 µg/disc (Pseudomonas aeruginosa [5]) [mm]	zone of inhibition at 50 µg/disc (Aspergillus niger) [mm]	IC50 [6] [µM]	IC50 [7] [µM]	IC50 [8] [µM]	further results
COC[C@H](/N=[N+]([O-])/C=C/CCCCC(C)=O)[C@H](C)O [ELAIOMYCIN D]	0	0	0	0	0	0	0	0	0	0	0	0	> 50	> 50	> 50	0	0	–	–	–	–
CCCCCC/C=C\[N+]([O-])=N\[C@@H](COC)[C@H](C)O [ELAIOMYCIN]	0	14	0	10	0	12	0	0	0	0	0	0	> 50	30.4 (≈ 118 µM)	35.1 (≈ 136 µM)	0	0	10.2	20.2	14.7	IC50 [9]: 9.72 µM; IC50 [10]: 14.7 µM; IC50 [11]: 10.8 µM; IC50 [12]: 9.21 µM; IC50 [13]: 11.8 µM; IC50 [14]: 9.24 µM; IC50 [15]: 10.4 µM; IC50 [16]: 7.97 µM; IC50 [17]: > 30 µM
CCCCCCCC/[N+]([O-])=N/[C@@H](COC)[C@H](C)O [ELAIOMYCIN F]	0	0	0	0	0	0	0	0	0	0	0	0	> 50	> 50	30.5 (≈ 117 µM)	0	0	–	–	–	–
CCCCCC(O)/C=C/[N+]([O-])=N/[C@@H](COC)[C@H](C)O (stereo partly specified) [ELAIOMYCIN E]	10	0	0	10	0	0	0	10	0	0	0	0	30.3 (≈ 110 µM)	31.2 (≈ 114 µM)	> 50	0	0	–	–	–	–
CCCCCCCC/[N+]([O-])=N/[C@@H](COC)C(N)=O [ELAIOMYCIN H]	0	12	0	0	0	14	15	0	0	0	0	13	37.5 (≈ 145 µM)	38.2 (≈ 147 µM)	40.5 (≈ 156 µM)	0	0	5.99	5.42	8.88	IC50 [9]: 1.15 µM; IC50 [10]: 8.57 µM; IC50 [11]: 3.74 µM; IC50 [12]: 8.01 µM; IC50 [13]: 9.84 µM; IC50 [14]: 1.2 µM; IC50 [15]: 3.95 µM; IC50 [16]: 4.65 µM; IC50 [17]: 9.49 µM
COC[C@H](/N=[N+](\[O-])CCCCCCC(C)=O)[C@H](C)O [ELAIOMYCIN G]	0	11	0	0	0	13	0	0	0	0	0	0	> 50	> 50	> 50	0	0	–	–	–	–

Source: ChEMBL document CHEMBL2150937, “Elaiomycins D-F, antimicrobial and cytotoxic azoxides from Streptomyces sp. strain HKI0708” (J Nat Prod, 2012)
